According to patent publication US12384741B2, “Lipid nanoparticle compositions for delivering circular polynucleotides” (Orna Therapeutics, Inc., priority 2021, dated 2025):

Key:
[1] = tested on: T cells, myeloid cells, B cells, and NK cells; experiment: mOX40L expression in splenic immune cells (flow cytometry); assay type: in vivo, C57BL/6 mice; conditions: LNP 50:10:38.5:1.5, IL:P 5.7, 1 mg/kg intravenously, 24 hours; vs Lipid 15 of Table 10f
Procedure: The ionizable lipid: helper lipid: cholesterol: PEG-lipid molar ratio of these LNPs was 50:10:38.5:1.5. Dialysis of the LNPs were performed using PBS. C57BL/6 female mice (6-8 weeks, n=4) were dosed at either LNP comprising Lipid 1 of Table 10e or the Lipid 15 of Table 10f at 1 mg/kg intravenously. At 24 hours, the spleen from the mice were collected for flow cytometry analysis. mOX40L transfection of Lipid 1 of Table 10e and Lipid 15 of Table 10f were compared in T cells, myeloid cells, B cells, and NK cells.

splenic T cells = experiment: mOX40L expression in splenic T cells; assay type: in vivo, C57BL/6 mice; conditions: 1 mg/kg intravenously, 24 hours; IL:P 5.7, 50:10:38.5:1.5
Procedure: The ionizable lipid: helper lipid: cholesterol: PEG-lipid molar ratio of these LNPs was 50:10:38.5:1.5. C57BL/6 female mice (6-8 weeks, n=4) were dosed at 1 mg/kg intravenously. At 24 hours, the spleen from the mice were collected for flow cytometry analysis, tested for weight loss and measured for serum alanine aminotransferase (ALT) after blood collection. mOX40L expression was measured in splenic T cells.

CCCCCCCCCCCCC(O)CN(CCCO)CCCCCCCC(=O)OC(CCCCCCCC)CCCCCCCC (centres unmarked) [Lipid 1 of Table 10e, heptadecan-9-yl 8-((3-hydroxypropyl)(2-hydroxytetradecyl)amino)octanoate]
mOX40L transfection in splenic immune cells [1]: comparable or higher levels of mOX40L transfection
mOX40L expression in splenic T cells (splenic T cells): resulted in expression of mOX40L in splenic T cells
